Reference: PubChem BioAssay (NCI)
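Test compounds were applied to cells in 96-well plates for 48 hours at 5 doses. TGI denotes the concentration required for complete inhibition of growth.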

Key:
Assay in all cases: growth of human tumour cells (NCI), 48 h
OVCAR-8 ovarian = tested on: OVCAR-8 ovarian
MOLT-4 leukemia = tested on: MOLT-4 leukemia
CCRF-CEM leukemia = tested on: CCRF-CEM leukemia
NCI/ADR-RES ovarian = tested on: NCI/ADR-RES ovarian
UACC-62 melanoma = tested on: UACC-62 melanoma
A549 NSCLC = tested on: A549 NSCLC
KM12 colon = tested on: KM12 colon
HS 578T breast = tested on: HS 578T breast
T-47D breast = tested on: T-47D breast
OVCAR-5 ovarian = tested on: OVCAR-5 ovarian
SK-MEL-28 melanoma = tested on: SK-MEL-28 melanoma
UACC-257 melanoma = tested on: UACC-257 melanoma
MALME-3M melanoma = tested on: MALME-3M melanoma
HT29 colon = tested on: HT29 colon
K-562 leukemia = tested on: K-562 leukemia
SK-OV-3 ovarian = tested on: SK-OV-3 ovarian
TK-10 renal = tested on: TK-10 renal
NCI-H460 lung = tested on: NCI-H460 lung
NCI-H23 lung = tested on: NCI-H23 lung
HOP-92 NSCLC = tested on: HOP-92 NSCLC
OVCAR-3 ovarian = tested on: OVCAR-3 ovarian
BT-549 breast = tested on: BT-549 breast
UO-31 renal = tested on: UO-31 renal
MDA-MB-231 breast = tested on: MDA-MB-231 breast
SF-539 CNS = tested on: SF-539 CNS
SN12C renal = tested on: SN12C renal
SK-MEL-5 melanoma = tested on: SK-MEL-5 melanoma
LOX IMVI melanoma = tested on: LOX IMVI melanoma
RPMI-8226 leukemia = tested on: RPMI-8226 leukemia
PC-3 prostate = tested on: PC-3 prostate
NCI-H522 lung = tested on: NCI-H522 lung
HCC-2998 colon = tested on: HCC-2998 colon
M14 melanoma = tested on: M14 melanoma
MDA-MB-435 = tested on: MDA-MB-435
SW-620 colon = tested on: SW-620 colon
SR leukemia = tested on: SR leukemia
MCF7 breast = tested on: MCF7 breast
SF-268 CNS = tested on: SF-268 CNS
HCT-15 colon = tested on: HCT-15 colon
HCT-116 colon = tested on: HCT-116 colon
MDA-N = tested on: MDA-N
SF-295 CNS = tested on: SF-295 CNS
ACHN renal = tested on: ACHN renal
SK-MEL-2 melanoma = tested on: SK-MEL-2 melanoma
U251 CNS = tested on: U251 CNS
DU-145 prostate = tested on: DU-145 prostate
RXF 393 renal = tested on: RXF 393 renal
SNB-19 CNS = tested on: SNB-19 CNS
CAKI-1 renal = tested on: CAKI-1 renal
HL-60(TB) leukemia = tested on: HL-60(TB) leukemia
IGROV1 ovarian = tested on: IGROV1 ovarian
COLO 205 colon = tested on: COLO 205 colon
A498 renal = tested on: A498 renal
HOP-62 NSCLC = tested on: HOP-62 NSCLC
786-0 renal = tested on: 786-0 renal
EKVX NSCLC = tested on: EKVX NSCLC
SNB-75 CNS = tested on: SNB-75 CNS
NCI-H226 lung = tested on: NCI-H226 lung
OVCAR-4 ovarian = tested on: OVCAR-4 ovarian

Measured: TGI

O=C(/C=C/c1ccc2c(c1)OCO2)Cc1nc2ncccc2[nH]c1=O
not listed: SNB-75 CNS | NCI-H226 lung | OVCAR-4 ovarian
> 100 µM: all other assays above

N=c1nnc2ccc(Cl)cc2n1O
95.2 µM: RXF 393 renal
64.5 µM: COLO 205 colon
92.4 µM: OVCAR-8 ovarian
not listed: A549 NSCLC | NCI-H460 lung | HOP-92 NSCLC | OVCAR-3 ovarian | SF-539 CNS | 786-0 renal | OVCAR-4 ovarian
> 100 µM: all other assays above

O=C(c1ccccn1)C1(N2CCCCC2)CCCCC1
64.3 µM: SF-268 CNS
37 µM: NCI-H522 lung
39.5 µM: HS 578T breast
64.9 µM: HOP-92 NSCLC
not listed: MALME-3M melanoma | NCI-H460 lung | RXF 393 renal | SNB-75 CNS
> 100 µM: all other assays above

CCCCOC(=O)Nc1ccc(S(=O)(=O)Nc2ccccc2Cl)cc1
26.8 µM: SR leukemia
34.7 µM: LOX IMVI melanoma
58.4 µM: PC-3 prostate
46.6 µM: TK-10 renal
36.2 µM: SK-MEL-28 melanoma
57 µM: EKVX NSCLC
49.3 µM: NCI-H522 lung
27.5 µM: HCC-2998 colon
27.8 µM: A498 renal
37.7 µM: M14 melanoma | HOP-62 NSCLC
41.6 µM: HCT-116 colon
36.5 µM: SF-268 CNS
49 µM: IGROV1 ovarian
40.1 µM: NCI-H460 lung
44.9 µM: HCT-15 colon
57.3 µM: CCRF-CEM leukemia
77.7 µM: NCI-H23 lung
36.8 µM: RPMI-8226 leukemia
44.3 µM: OVCAR-3 ovarian
43.1 µM: K-562 leukemia
39.2 µM: BT-549 breast
38.8 µM: SK-MEL-2 melanoma
35.9 µM: HT29 colon
32.9 µM: SF-295 CNS
41.8 µM: 786-0 renal
55.9 µM: RXF 393 renal
24.3 µM: SK-MEL-5 melanoma
65.8 µM: ACHN renal
48.8 µM: SN12C renal
41.2 µM: OVCAR-4 ovarian
31.3 µM: SW-620 colon
32.7 µM: UACC-62 melanoma | SF-539 CNS
87.1 µM: T-47D breast
43.4 µM: NCI/ADR-RES ovarian
51.5 µM: MOLT-4 leukemia
> 100 µM: A549 NSCLC | DU-145 prostate
53.8 µM: HS 578T breast
55.4 µM: OVCAR-5 ovarian
40 µM: OVCAR-8 ovarian
59.5 µM: HL-60(TB) leukemia
45.2 µM: COLO 205 colon
44.5 µM: CAKI-1 renal
42.1 µM: MCF7 breast
62.9 µM: KM12 colon
49.8 µM: SNB-19 CNS
52.5 µM: MALME-3M melanoma
33.8 µM: SK-OV-3 ovarian | MDA-N
98.4 µM: UACC-257 melanoma
42 µM: MDA-MB-231 breast
80 µM: UO-31 renal
36 µM: MDA-MB-435 | U251 CNS
30 µM: HOP-92 NSCLC

CC(=O)Nc1nc(NC(C)=O)c2[nH]c(CO)nc2n1
not listed: RPMI-8226 leukemia
> 100 µM: all other assays above

COc1ccc(N=NC(=Nc2ccccc2)c2ccc(N(CCC#N)CCC#N)cc2)cc1
59.7 µM: MDA-MB-231 breast
56.8 µM: UACC-257 melanoma
28.6 µM: COLO 205 colon
55.2 µM: OVCAR-3 ovarian
89.3 µM: IGROV1 ovarian
73 µM: MCF7 breast
69.1 µM: NCI-H522 lung
not listed: CCRF-CEM leukemia | MALME-3M melanoma | LOX IMVI melanoma | HL-60(TB) leukemia
> 100 µM: all other assays above

NS(=O)(=O)c1nnc(NC(=O)Nc2ccc(Cl)c(Cl)c2)s1
34.8 µM: HCC-2998 colon
75.9 µM: HS 578T breast
60.6 µM: SR leukemia
42.4 µM: HCT-116 colon
51.5 µM: RPMI-8226 leukemia
52.2 µM: BT-549 breast
94.6 µM: EKVX NSCLC
30.1 µM: NCI-H522 lung
74.2 µM: SK-MEL-2 melanoma
30.8 µM: SK-MEL-5 melanoma
37.9 µM: HT29 colon
50 µM: MDA-MB-435
67.5 µM: SF-268 CNS | 786-0 renal
63.4 µM: SK-OV-3 ovarian
84.2 µM: MOLT-4 leukemia
85.3 µM: UO-31 renal
49.9 µM: OVCAR-8 ovarian
35.3 µM: RXF 393 renal
43.9 µM: TK-10 renal | A498 renal
67.1 µM: MDA-MB-231 breast
75 µM: OVCAR-5 ovarian
92 µM: KM12 colon
32.3 µM: M14 melanoma
39.4 µM: NCI-H23 lung
42.3 µM: HOP-92 NSCLC
39.3 µM: SK-MEL-28 melanoma
36.4 µM: LOX IMVI melanoma
31.2 µM: UACC-62 melanoma
42 µM: UACC-257 melanoma
78.8 µM: CAKI-1 renal
39.9 µM: MALME-3M melanoma
39.7 µM: SN12C renal | HOP-62 NSCLC
55.8 µM: SNB-19 CNS
50.7 µM: HCT-15 colon
28.2 µM: COLO 205 colon
55.7 µM: NCI/ADR-RES ovarian
34.1 µM: SF-539 CNS
65.8 µM: NCI-H226 lung
37.3 µM: CCRF-CEM leukemia
55.3 µM: T-47D breast | NCI-H460 lung
88.3 µM: MCF7 breast
44.8 µM: MDA-N
not listed: PC-3 prostate | IGROV1 ovarian | SNB-75 CNS
> 100 µM: all other assays above
